Laboratory results published in patent US20150191469A1, “COMPOUNDS AND METHODS FOR TREATING HIV” (priority 2012, published 2015).

These compounds were tested on HIV (assay: MT4 assay: antiviral HIV activity (cell protection, cell titer glo readout at 96 hours)). Details: Human immunodeficiency virus 1, MT4, 96 h, MT4 cells, cell titer glo readout at 96 hours, 10 point dose response; read-out: HIV MT4 Assay IC50.
Type: cell-based
Experimental: Antiviral HIV activity and cytotoxicity values for compounds of the invention from Table 1 were measured in parallel in the HTLV-1 transformed cell line MT-4 based on the method previously described (Hazen et al., 2007, In vitro antiviral activity of the novel, tyrosyl-based human immunodeficiency virus (HIV) type 1 protease inhibitor brecanavir (GW640385) in combination with other antiretrovirals and against a panel of protease inhibitor-resistant HIV (Hazen et al., “In vitro antiviral activity of the novel, tyrosyl-based human immunodeficiency virus (HIV) type 1 protease inhibitor brecanavir (GW640385) in combination with other antiretrovirals and against a panel of protease inhibitor-resistant HIV”, Antimicrob. Agents Chemother. 2007, 51: 3147-3154; and Pauwels et al., “Sensitive and rapid assay on MT-4 cells for the detection of antiviral compounds against the AIDS virus”, J. of Virological Methods 1987, 16: 171-185).
Luciferase activity was measured 96 hours later by adding a cell titer glo (Promega, Madison, Wis.). Percent inhibition of cell protection data was plotted relative to no compound control. Under the same condition, cytotoxicity of the compounds was determined using cell titer Glo™ (Promega, Madison, Wis.). IC50s were determined from a 10 point dose response curve using 3-4-fold serial dilution for each compound, which spans a concentration range >1000 fold.
These values are plotted against the molar compound concentrations using the standard four parameter logistic equation:
y=((Vmax*x̂n)/(K̂n+x̂n))+Y2
Y2=minimum y n=slope factor
Vmax=maximum y x=compound concentration [M]

Structure (SMILES) | IC50 [nM]
COCCN1CCCN(c2cc(-c3cc4c(-c5cc(F)c6c(c5C)CCCO6)c([C@H](OC(C)(C)C)C(=O)O)c(C)nc4n3C)ccn2)CC1 (atropisomer, axis not shown) [Example 103] | 45
Cc1nc2c(cc(-c3ccnc(N4CCCN(C(=O)C5CC5)CC4)c3)n2C)c(-c2cc(F)c3c(c2C)CCCO3)c1[C@H](OC(C)(C)C)C(=O)O (atropisomer, axis not shown) [Example 104] | 37.5
Cc1nc2c(cc(-c3ccnc(N4CCc5cc(-n6c(C)ccc6C)ccc5C4)c3)n2C)c(-c2cc(F)c3c(c2C)CCCO3)c1[C@H](OC(C)(C)C)C(=O)O (atropisomer, axis not shown) [Example 106] | 45
Cc1nc2c(cc(-c3ccnc(N4CCCN(C(=O)C5CCOCC5)CC4)c3)n2C)c(-c2cc(F)c3c(c2C)CCCO3)c1[C@H](OC(C)(C)C)C(=O)O (atropisomer, axis not shown) [Example 108] | 131
COc1ccccc1[C@H]1[C@@H]2CN(c3cc(-c4cc5c(-c6cc(F)c7c(c6C)CCCO7)c([C@H](OC(C)(C)C)C(=O)O)c(C)nc5n4C)ccn3)C[C@@H]21 (atropisomer, axis not shown) [Example 109] | 121
Cc1nc2c(cc(-c3ccnc(N4C[C@@H]5CC[C@@H](C5)C4)c3)n2C)c(-c2cc(F)c3c(c2C)CCCO3)c1[C@H](OC(C)(C)C)C(=O)O (atropisomer, axis not shown) [Example 111] | 27.5
Cc1nc2c(cc(-c3ccnc(N4CCCN(C5CCOCC5)CC4)c3)n2C)c(-c2cc(F)c3c(c2C)CCCO3)c1[C@H](OC(C)(C)C)C(=O)O (atropisomer, axis not shown) [Example 113] | 20
Cc1nc2c(cc(-c3ccnc(N4CCCN(S(=O)(=O)C5CC5)CC4)c3)n2C)c(-c2cc(F)c3c(c2C)CCCO3)c1[C@H](OC(C)(C)C)C(=O)O (atropisomer, axis not shown) [Example 114] | 25
Cc1nc2c(cc(-c3ccnc(N4CCN(C(=O)N(C)C)CC4)c3)n2C)c(-c2cc(F)c3c(c2C)CCCO3)c1[C@H](OC(C)(C)C)C(=O)O (atropisomer, axis not shown) [Example 115] | 15.6
Cc1nc2c(cc(-c3ccnc(N4CCCN(C5CCC5)CC4)c3)n2C)c(-c2cc(F)c3c(c2C)CCCO3)c1[C@H](OC(C)(C)C)C(=O)O (atropisomer, axis not shown) [Example 117] | 39.1
Cc1nc2c(cc(-c3ccnc(N4CCN(C5CC5)CC4)c3)n2C)c(-c2cc(F)c3c(c2C)CCCO3)c1[C@H](OC(C)(C)C)C(=O)O (atropisomer, axis not shown) [Example 118] | 15
COCCS(=O)(=O)N1CCCN(c2cc(-c3cc4c(-c5cc(F)c6c(c5C)CCCO6)c([C@H](OC(C)(C)C)C(=O)O)c(C)nc4n3C)ccn2)CC1 (atropisomer, axis not shown) [Example 119] | 20
Cc1nc2c(cc(-c3ccnc(N4CC[C@@H](N(C)C)C4)c3)n2C)c(-c2cc(F)c3c(c2C)CCCO3)c1[C@H](OC(C)(C)C)C(=O)O (atropisomer, axis not shown) [Example 120] | 45
Cc1nc2c(cc(-c3ccnc(N4C[C@@H]5CC[C@H]4CN(C4COC4)C5)c3)n2C)c(-c2cc(F)c3c(c2C)CCCO3)c1[C@H](OC(C)(C)C)C(=O)O (atropisomer, axis not shown) [Example 122] | 11.6
COCCC(=O)N1CCCN(c2cc(-c3cc4c(-c5cc(F)c6c(c5C)CCCO6)c([C@H](OC(C)(C)C)C(=O)O)c(C)nc4n3C)ccn2)CC1 (atropisomer, axis not shown) [Example 125] | 41.5
Cc1nc2c(cc(-c3ccnc(N4CCN(C5CCOCC5)CC4)c3)n2C)c(-c2cc(F)c3c(c2C)CCCO3)c1[C@H](OC(C)(C)C)C(=O)O (atropisomer, axis not shown) [Example 127] | 3.6
Cc1nc2c(cc(-c3ccnc(N4CCCN(C5(C)COC5)CC4)c3)n2C)c(-c2cc(F)c3c(c2C)CCCO3)c1[C@H](OC(C)(C)C)C(=O)O (atropisomer, axis not shown) [Example 128] | 10.3
Cc1nc2c(cc(-c3cnn(CC4CN(C5CCOCC5)C4)c3)n2C)c(-c2cc(F)c3c(c2C)CCCO3)c1[C@H](OC(C)(C)C)C(=O)O (atropisomer, axis not shown) [Example 130] | 291
Cc1nc2c(cc(-c3ccc(F)cc3)n2C)c(-c2cc(F)c3c(c2C)CCCO3)c1[C@H](OC(C)(C)C)C(=O)O (atropisomer, axis not shown) [Example 131] | 89.5
CCCn1cc(-c2cc3c(-c4cc(F)c5c(c4C)CCCO5)c([C@H](OC(C)(C)C)C(=O)O)c(C)nc3n2C)cn1 (atropisomer, axis not shown) [Example 132] | 32.9

Structure (SMILES) | IC50 [nM]
Cc1nc2c(cc(-c3cnn(C4CCN(C5COC5)CC4)c3)n2C)c(-c2cc(F)c3c(c2C)CCCO3)c1[C@H](OC(C)(C)C)C(=O)O (atropisomer, axis not shown) [Example 133] | 104
Cc1nc2c(cc(-c3ccc4c(cnn4C)c3)n2C)c(-c2cc(F)c3c(c2C)CCCO3)c1[C@H](OC(C)(C)C)C(=O)O (atropisomer, axis not shown) [Example 134] | 39.2
Cc1nc2c(cc(-c3ccc4c(c3)N(C)CCO4)n2C)c(-c2cc(F)c3c(c2C)CCCO3)c1[C@H](OC(C)(C)C)C(=O)O (atropisomer, axis not shown) [Example 135] | 126
Cc1nc2c(cc(-c3ccc4nccn4c3)n2C)c(-c2cc(F)c3c(c2C)CCCO3)c1[C@H](OC(C)(C)C)C(=O)O (atropisomer, axis not shown) [Example 136] | 42.5
Cc1nc2c(cc(-c3ccc4c(c3)CCN(C)C4=O)n2C)c(-c2cc(F)c3c(c2C)CCCO3)c1[C@H](OC(C)(C)C)C(=O)O (atropisomer, axis not shown) [Example 137] | 43.8
Cc1nc2c(cc(-c3ccnc(C(=O)N4CCN(S(C)(=O)=O)CC4)c3)n2C)c(-c2cc(F)c3c(c2C)CCCO3)c1[C@H](OC(C)(C)C)C(=O)O (atropisomer, axis not shown) [Example 146] | 487
Cc1nc2c(cc(-c3ccnc(C(=O)Nc4cnn(C)c4)c3)n2C)c(-c2cc(F)c3c(c2C)CCCO3)c1[C@H](OC(C)(C)C)C(=O)O (atropisomer, axis not shown) [Example 147] | 45.3
Cc1nc2c(cc(-c3ccnc(C(=O)Nc4ccnn4C)c3)n2C)c(-c2cc(F)c3c(c2C)CCCO3)c1[C@H](OC(C)(C)C)C(=O)O (atropisomer, axis not shown) [Example 148] | 40.1
Cc1nc2c(cc(-c3ccnc(C(=O)NCCN4CCCC4=O)c3)n2C)c(-c2cc(F)c3c(c2C)CCCO3)c1[C@H](OC(C)(C)C)C(=O)O (atropisomer, axis not shown) [Example 149] | 219
Cc1nc2c(cc(-c3ccnc(C(=O)NCc4c[nH]cn4)c3)n2C)c(-c2cc(F)c3c(c2C)CCCO3)c1[C@H](OC(C)(C)C)C(=O)O (atropisomer, axis not shown) [Example 150] | 9360
Cc1nc2c(cc(-c3ccnc(C(=O)NCc4ccc(F)cc4)c3)n2C)c(-c2cc(F)c3c(c2C)CCCO3)c1[C@H](OC(C)(C)C)C(=O)O (atropisomer, axis not shown) [Example 151] | 43.6
Cc1nc2c(cc(-c3ccnc(C(=O)NC4CCCCC4)c3)n2C)c(-c2cc(F)c3c(c2C)CCCO3)c1[C@H](OC(C)(C)C)C(=O)O (atropisomer, axis not shown) [Example 152] | 72.4
Cc1nc2c(cc(-c3ccnc(C(=O)Nc4ccn(C)n4)c3)n2C)c(-c2cc(F)c3c(c2C)CCCO3)c1[C@H](OC(C)(C)C)C(=O)O (atropisomer, axis not shown) [Example 153] | 44
Cc1nc2c(cc(-c3ccnc(C#CC(C)(C)N)c3)n2C)c(-c2cc(F)c3c(c2C)CCCO3)c1[C@H](OC(C)(C)C)C(=O)O (atropisomer, axis not shown) [Example 155] | 81.9
Cc1nc2c(cc(-c3ccnc(C#CC4(N)CCCCC4)c3)n2C)c(-c2cc(F)c3c(c2C)CCCO3)c1[C@H](OC(C)(C)C)C(=O)O (atropisomer, axis not shown) [Example 156] | 39.8
Cc1nc2c(cc(-c3ccnc(C#CCN4CCCC4)c3)n2C)c(-c2cc(F)c3c(c2C)CCCO3)c1[C@H](OC(C)(C)C)C(=O)O (atropisomer, axis not shown) [Example 157] | 30
Cc1nc2c(cc(-c3ccnc(C#CCN4CCOCC4)c3)n2C)c(-c2cc(F)c3c(c2C)CCCO3)c1[C@H](OC(C)(C)C)C(=O)O (atropisomer, axis not shown) [Example 158] | 45
Cc1nc2c(cc(-c3ccnc(C#CC4(O)CCCCC4)c3)n2C)c(-c2cc(F)c3c(c2C)CCCO3)c1[C@H](OC(C)(C)C)C(=O)O (atropisomer, axis not shown) [Example 159] | 27.9
Cc1nc2c(cc(-c3ccnc(C#CCN4CCN(C)CC4)c3)n2C)c(-c2cc(F)c3c(c2C)CCCO3)c1[C@H](OC(C)(C)C)C(=O)O (atropisomer, axis not shown) [Example 160] | 150
